From patent US9751869B2, “LXR modulators” (BRISTOL-MYERS SQUIBB COMPANY, priority 2013, dated 2017)

Biological target: T1, LXRβ (Homo sapiens, UniProt P55055)
T1 construct: Co-transfection expression plasmids, comprising full-length LXRα (pCMX-h LXRα or LXRβ (pCMX-hLXRβ)); expressed in transfected cells; host or cells: CV-1 African green monkey kidney cells, transient transfection with pCMX-hLXRβ
T1 sequence (P55055 1-460): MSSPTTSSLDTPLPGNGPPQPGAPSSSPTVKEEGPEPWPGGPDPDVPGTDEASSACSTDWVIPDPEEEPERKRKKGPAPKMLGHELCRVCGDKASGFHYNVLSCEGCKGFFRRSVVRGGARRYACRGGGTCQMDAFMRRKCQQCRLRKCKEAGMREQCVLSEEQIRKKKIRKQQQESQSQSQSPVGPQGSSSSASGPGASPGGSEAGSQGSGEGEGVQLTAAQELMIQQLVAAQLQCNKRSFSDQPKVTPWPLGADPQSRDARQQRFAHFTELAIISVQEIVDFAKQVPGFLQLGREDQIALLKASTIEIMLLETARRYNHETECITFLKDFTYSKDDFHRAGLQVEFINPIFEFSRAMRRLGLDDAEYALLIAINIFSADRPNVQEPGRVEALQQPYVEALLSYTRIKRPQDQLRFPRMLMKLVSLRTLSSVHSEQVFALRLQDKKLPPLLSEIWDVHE
T1 sequence (P19793 1-462 partner): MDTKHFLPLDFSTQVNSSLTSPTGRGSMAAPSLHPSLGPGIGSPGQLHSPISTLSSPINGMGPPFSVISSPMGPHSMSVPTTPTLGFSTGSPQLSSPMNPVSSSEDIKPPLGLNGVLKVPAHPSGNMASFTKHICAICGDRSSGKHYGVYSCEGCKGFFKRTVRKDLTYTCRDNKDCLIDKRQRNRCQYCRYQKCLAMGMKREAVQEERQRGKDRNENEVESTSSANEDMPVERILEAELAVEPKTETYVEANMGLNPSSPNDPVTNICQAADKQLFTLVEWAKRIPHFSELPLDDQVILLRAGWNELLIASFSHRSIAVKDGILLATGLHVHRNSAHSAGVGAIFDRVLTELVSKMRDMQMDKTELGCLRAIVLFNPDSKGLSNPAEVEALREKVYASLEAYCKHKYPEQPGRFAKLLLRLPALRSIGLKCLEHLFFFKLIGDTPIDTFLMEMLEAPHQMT
Assay: LXR/LXRE co-transfection assay (luciferase reporter) in CV-1 cells, LXRβ
Assay type: cell-based
Conditions: for EC50: CV-1 cells transfected with pCMX-hLXRβ and LXREx1-Tk-Luciferase, 20 hours incubation, read-out: LXRbeta agonism EC50; for Emax: CV-1 cells, relative to maximum response of high control N-(3-((4-fluorophenyl)-(naphthalene-2-sulfonyl)amino)propyl)-2,2-dimethylpropionamide, read-out: LXRbeta % EFFICACY
Method in brief: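 CV-1 cells transiently co-transfected with full-length human LXRβ, LXRE-Tk-luciferase reporter and β-galactosidase control, then exposed to compound (≤0.5% DMSO) for 20 h at 37 °C before luminescence read. EC50 from 10-point, half-log dose curves; efficacy relative to the sulfonamide high control, means of 2–3 experiments.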

| Compound | EC50 [µM] | Emax [%] |
| --- | --- | --- |
| CC(C)c1nc(-c2ccc(OC(F)(F)F)cc2)c(-c2cc(-c3cccc(S(C)(=O)=O)c3)ccc2-n2ccc(C(F)(F)F)n2)o1 [Example 340, 2-isopropyl-5-(3′-(methylsulfonyl)-4-(3-(trifluoromethyl)-1H-pyrazol-1-yl)biphenyl-3-yl)-4-(4-(trifluoromethoxy)phenyl)oxazole] | 0.279 | 72 |
| CC(C)c1nc(-c2ccc(OC(F)(F)F)cc2)c(-c2cc(-c3cc(F)c(CO)c(S(C)(=O)=O)c3)ccc2-n2ccc(C(F)(F)F)n2)o1 [Example 341, (3-fluoro-3′-(2-isopropyl-4-(4-(trifluoromethoxy)phenyl)oxazol-5-yl)-5-(methylsulfonyl)-4′-(3-(trifluoromethyl)-1H-pyrazol-1-yl)biphenyl-4-yl)methanol] | 0.058 | 76 |
| Cc1nc(-c2ccc(OC(F)(F)F)cc2)c(-c2cc(-c3cccc(C(C)(C)C#N)c3)ccc2-n2ccc(C(F)(F)F)n2)o1 [Example 342, 2-methyl-2-(3′-(2-methyl-4-(4-(trifluoromethoxy)phenyl)oxazol-5-yl)-4′-(3-(trifluoromethyl)-1H-pyrazol-1-yl)biphenyl-3-yl) propanenitrile] | 0.432 | 46 |
| Cc1nc(-c2ccc(OC(F)(F)F)cc2)c(-c2cc(-c3cccc(C(C)(C)C(N)=O)c3)ccc2-n2ccc(C(F)(F)F)n2)o1 [Example 343, 2-methyl-2-(3′-(2-methyl-4-(4-(trifluoromethoxy)phenyl)oxazol-5-yl)-4′-(3-(trifluoromethyl)-1H-pyrazol-1-yl)biphenyl-3-yl) propanamide] | 0.149 | 74 |
| Cc1nc(-c2ccc(Cl)cc2)c(-c2cc(-c3cccc(S(C)(=O)=O)c3)ccc2-n2ccc(C(F)(F)F)n2)o1 [Example 344, 4-(4-chlorophenyl)-2-methyl-5-(3′-(methylsulfonyl)-4-(3-(trifluoromethyl)-1H-pyrazol-1-yl)biphenyl-3-yl)oxazole] | 0.116 | 72 |
| Cc1nc(-c2ccc(OC(F)(F)F)cc2)c(-c2cc(-c3cccc(S(C)(=O)=O)c3)ccc2-n2nc(C(F)(F)F)cc2Cl)o1 [Example 345, 5-(4-(5-chloro-3-(trifluoromethyl)-1H-pyrazol-1-yl)-3′-(methylsulfonyl)biphenyl-3-yl)-2-methyl-4-(4-(trifluoromethoxy)phenyl)oxazole] | 0.073 | 75 |
| Cc1nc(-c2ccc3c(c2)OC(F)(F)O3)c(-c2cc(-c3cccc(S(C)(=O)=O)c3)ccc2-n2nc(C(F)(F)F)cc2Cl)o1 [Example 346, 5-(4-(5-chloro-3-(trifluoromethyl)-1H-pyrazol-1-yl)-3′-(methylsulfonyl)biphenyl-3-yl)-4-(2,2-difluorobenzo[d][1,3]dioxol-5-yl)-2-methyloxazole] | 0.037 | 90 |
| Cc1nc(-c2ccc3c(c2)OC(F)(F)O3)c(-c2cc(-c3cc(F)c(CO)c(S(C)(=O)=O)c3)ccc2-n2nc(C(F)(F)F)cc2Cl)o1 [Example 347, (4′-(5-chloro-3-(trifluoromethyl)-1H-pyrazol-1-yl)-3′-(4-(2,2-difluorobenzo[d] [1,3]dioxol-5-yl)-2-methyloxazol-5-yl)-3-fluoro-5-(methylsulfonyl)biphenyl-4-yl)methanol] | 0.035 | 92 |
| Cc1nc(-c2ccc(OC(F)(F)F)cc2)c(-c2cc(-c3cc(F)c(CO)c(S(C)(=O)=O)c3)ccc2-n2nc(C(F)(F)F)cc2Cl)o1 [Example 348, (4′-(5-chloro-3-(trifluoromethyl)-1H-pyrazol-1-yl)-3-fluoro-3′-(2-methyl-4-(4-(trifluoromethoxy)phenyl)oxazol-5-yl)-5-(methylsulfonyl)biphenyl-4-yl)methanol] | 0.059 | 57 |
| Cc1nc(-c2ccc3c(c2)OC(F)(F)O3)c(-c2cc(-c3cc(F)c(CO)c(S(C)(=O)=O)c3)ccc2-n2ccc(C(F)(F)F)n2)o1 [Example 349, (3′-(4-(2,2-difluorobenzo[d][1,3]dioxol-5-yl)-2-methyloxazol-5-yl)-3-fluoro-5-(methylsulfonyl)-4′-(3-(trifluoromethyl)-1H-pyrazol-1-yl)biphenyl-4-yl)methanol] | 0.008 | 72 |
| Cc1nc(-c2ccc3c(c2)OC(F)(F)O3)c(-c2cc(-c3cccc(S(C)(=O)=O)c3)ccc2-n2ccc(C(F)(F)F)n2)o1 [Example 350, 4-(2,2-difluorobenzo[d][1,3]dioxol-5-yl)-2-methyl-5-(3′-(methylsulfonyl)-4-(3-(trifluoromethyl)-1H-pyrazol-1-yl)biphenyl-3-yl)oxazole] | 0.066 | 91 |
| Cc1nc(-c2cc(F)c(OC(F)F)c(F)c2)c(-c2cc(-c3cccc(S(C)(=O)=O)c3)ccc2-n2ccc(C(F)(F)F)n2)o1 [Example 351, 4-(4-(difluoromethoxy)-3,5-difluorophenyl)-2-methyl-5-(3′-(methylsulfonyl)-4-(3-(trifluoromethyl)-1H-pyrazol-1-yl)biphenyl-3-yl)oxazole] | 0.062 | 77 |
| Cc1nc(-c2cc(F)c(OC(F)F)c(F)c2)c(-c2cc(-c3cc(F)c(CO)c(S(C)(=O)=O)c3)ccc2-n2ccc(C(F)(F)F)n2)o1 [Example 352, (3′-(4-(4-(difluoromethoxy)-3,5-difluorophenyl)-2-methyloxazol-5-yl)-3-fluoro-5-(methylsulfonyl)-4′-(3-(trifluoromethyl)-1H-pyrazol-1-yl)biphenyl-4-yl)methanol] | 0.014 | 76 |
| Cc1nc(-c2ccc(OC(F)F)nc2)c(-c2cc(-c3cccc(S(C)(=O)=O)c3)ccc2-n2ccc(C(F)(F)F)n2)o1 [Example 353, 4-(6-(difluoromethoxy)pyridin-3-yl)-2-methyl-5-(3′-(methylsulfonyl)-4-(3-(trifluoromethyl)-1H-pyrazol-1-yl)biphenyl-3-yl)oxazole] | 0.023 | 93 |
| Cc1nc(-c2ccc(OC(F)F)nc2)c(-c2cc(-c3cc(F)c(CO)c(S(C)(=O)=O)c3)ccc2-n2ccc(C(F)(F)F)n2)o1 [Example 354, (3′-(4-(6-(difluoromethoxy)pyridin-3-yl)-2-methyloxazol-5-yl)-3-fluoro-5-(methylsulfonyl)-4′-(3-(trifluoromethyl)-1H-pyrazol-1-yl)biphenyl-4-yl)methanol] | 0.01 | 101 |
| Cc1nc(-c2ccc(Cl)c(OC(F)F)c2)c(-c2cc(-c3cccc(S(C)(=O)=O)c3)ccc2-n2ccc(C(F)(F)F)n2)o1 [Example 355, 4-(4-chloro-3-(difluoromethoxy)phenyl)-2-methyl-5-(3′-(methylsulfonyl)-4-(3-(trifluoromethyl)-1H-pyrazol-1-yl)biphenyl-3-yl)oxazole] | 0.196 | 65 |
| Cc1nc(-c2ccc(Cl)c(OC(F)F)c2)c(-c2cc(-c3cc(F)c(CO)c(S(C)(=O)=O)c3)ccc2-n2ccc(C(F)(F)F)n2)o1 [Example 356, (3′-(4-(4-chloro-3-(difluoromethoxy)phenyl)-2-methyloxazol-5-yl)-3-fluoro-5-(methylsulfonyl)-4′-(3-(trifluoromethyl)-1H-pyrazol-1-yl)biphenyl-4-yl)methanol] | 0.071 | 63 |
| Cc1nc(-c2ccc3c(c2)OC(F)(F)O3)c(-c2cc(-c3cccc(S(C)(=O)=O)c3)ccc2-n2ccc(C(C)(C)O)n2)o1 [Example 357, 2-(1-(3-(4-(2,2-difluorobenzo[d][1,3]dioxol-5-yl)-2-methyloxazol-5-yl)-3′-(methylsulfonyl)-[1,1′-biphenyl]-4-yl)-1H-pyrazol-3-yl)propan-2-ol] | 0.392 | 41 |
| Cc1nc(-c2ccc3c(c2)OC(F)(F)O3)c(-c2cc(-c3cc(F)c(CO)c(S(C)(=O)=O)c3)ccc2-n2ccc(C(C)(C)O)n2)o1 [Example 358, 2-(1-(3-(4-(2,2-difluorobenzo[d][1,3]dioxol-5-yl)-2-methyloxazol-5-yl)-3′-fluoro-4′-(hydroxymethyl)-5′-(methylsulfonyl)-[1,1′-biphenyl]-4-yl)-1H-pyrazol-3-yl)propan-2-ol] | 0.105 | 30 |
| Cc1nc(-c2ccc3c(c2)OC(F)(F)O3)c(-c2cc(-c3cccc(S(C)(=O)=O)c3)ccc2-n2ccc(C(N)=O)n2)o1 [Example 359, 1-(3-(4-(2,2-difluorobenzo[d][1,3]dioxol-5-yl)-2-methyloxazol-5-yl)-3′-(methylsulfonyl)-[1,1′-biphenyl]-4-yl)-1H-pyrazole-3-carboxamide] | 0.316 | 14 |
